Data as given in patent EP0216646B1, “N,N-dimethylethyl amine oxide derivative, process for its preparation and pharmaceutical compositions obtained” (Albert ROLLAND S.A. Société dite, priority 1985, dated 1987).

How the values were obtained:
Type in all cases: in vivo
[1] = reserpine-induced hypothermia test; conditions: qualitative
Text: (§1) Le N-oxyde de 2,2-bis phénoxy NN-diméthyl éthylamine et ses sels possèdent les propriétés caractéristiques des autres anti-dépresseurs, sur les tests pharmacologiques classiques. Ils inhibent l'effet hypothermisant de la réserpine, et de l'apomorphine, ils augmentent la toxicité de groupe induite par injection de yohimbine et ils antagonisent le test du désespoir chez la souris.

[2] = test system: souris; assay: despair test in the mouse; conditions: qualitative
Text: as §1

[3] = yohimbine-induced group toxicity
Text: as §1

[4] = apomorphine test (apomorphine-induced hypothermia)
Text: as §1

[5] = test system: souris; assay: acute toxicity in the mouse (median lethal dose)
Text: (§2) Les sels de 2,2-bis phénoxy NN-diméthyl éthylamine sont décrits comme possédant des propriétés anti-dépressives.

[6] = acute toxicity in the mouse (median lethal dose); conditions: in vivo; acute toxicity, mouse; read-out: dose léthale moyenne
Text: as §2

[7] = compared with 2,2-bis phénoxy NN-diméthyl éthylamine

| SMILES | effet hypothermisant de la réserpine [1] | test du désespoir chez la souris [2] | action positive vis-à-vis de la toxicité de groupe à la yohimbine [3, 7] | toxicité de groupe induite par injection de yohimbine ([3]; qualitative) | action antagoniste sur le test à l'apomorphine [4, 7] | effet hypothermisant de l'apomorphine ([4]; qualitative) | dose léthale moyenne ([5]; acute toxicity, mouse) | toxicité ([5]; qualitative statement) | LD50 [6] [mg/kg] |
| --- | --- | --- | --- | --- | --- | --- | --- | --- | --- |
| C[N+](C)([O-])CC(Oc1ccccc1)Oc1ccccc1 [N-oxydede 2,2-bis phénoxy NN-diméthyl éthylamine] | inhibent | antagonisent | nettement plus marquées | augmentent | nettement plus marquées | inhibent | il n'a pas été possible de déterminer | très faible |  |
| CN(C)CC(Oc1ccccc1)Oc1ccccc1 [2,2-bis phénoxy NN-diméthyl éthylamine, reference compound] |  |  |  |  |  |  |  |  | ~800 |
